{
  "source": "patent US9066860B2",
  "about": "“Oil-in-water emulsified composition” (SHISEIDO COMPANY, LTD., priority 2009, dated 2015)",
  "origin": "cited, not measured here",
  "data": [
    {"details": "background art statement", "values": [
      {"smiles": "CCCCC(CC)COC(=O)C=Cc1ccc(OC)cc1", "note": "(stereo not drawn) [2-ethylhexyl p-methoxycinnamate]", "Maximum (peak) absorption wavelength": "~310 nm"},
      {"smiles": "CCCCC(CC)COC(=O)c1ccc(N(C)C)cc1", "note": "(stereo not drawn) [2-ethylhexyl-p-dimethylaminobenzoate]", "Maximum (peak) absorption wavelength": "~290 nm"},
      {"smiles": "COc1ccc(C(=O)CC(=O)c2ccc(C(C)(C)C)cc2)cc1", "note": "[4-tert-butyl-4′-methoxydibenzoylmethane]", "Maximum (peak) absorption wavelength": "around 360 nm"}
    ]}
  ]
}
